One may read the Ki as a dissociation constant, usually derived from enzyme kinetics or from competition with a known ligand. Higher therefore signals lower affinity.

The target of this assay is Cruzipain (Trypanosoma cruzi, UniProt P25779). As to the kind of experiment: Inhibition of Trypanosoma cruzi cruzain.
Sequence of Cruzipain (P25779 whole entry): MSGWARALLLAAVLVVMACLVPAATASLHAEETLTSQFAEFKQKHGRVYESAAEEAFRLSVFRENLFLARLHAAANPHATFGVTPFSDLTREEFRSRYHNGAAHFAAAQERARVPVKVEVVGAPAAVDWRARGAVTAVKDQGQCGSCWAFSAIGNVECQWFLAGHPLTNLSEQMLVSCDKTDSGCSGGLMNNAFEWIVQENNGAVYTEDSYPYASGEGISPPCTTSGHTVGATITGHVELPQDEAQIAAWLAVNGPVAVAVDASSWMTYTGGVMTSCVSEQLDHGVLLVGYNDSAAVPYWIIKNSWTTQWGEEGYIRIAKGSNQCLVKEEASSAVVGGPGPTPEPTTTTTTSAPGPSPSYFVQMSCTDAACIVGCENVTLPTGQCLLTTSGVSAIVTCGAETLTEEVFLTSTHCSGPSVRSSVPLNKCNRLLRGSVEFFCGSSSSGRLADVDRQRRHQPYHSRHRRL
The molecule `O=C(N[C@@H](Cc1ccccc1)C(=O)N[C@@H](Cc1ccccc1)C(=O)CO)OCc1ccccc1` showed an inhibition constant Ki of 145 nM.

Take `O=C(O)C[C@H](CCc1ccccc1)NC(=O)[C@H](Cc1ccccc1)NC(=O)OCc1ccccc1`: the Ki is over 10000 nM.

In the case of `O=C(N[C@@H](Cc1ccccc1)C(=O)N[C@H](CCO)CCc1ccccc1)OCc1ccccc1`, the Ki is over 10000 nM.

As to `O=C(N[C@@H](Cc1ccccc1)C(=O)N[C@H](CCS)CCc1ccccc1)OCc1ccccc1`, the Ki was over 5010 nM.

As for `O=C(N[C@@H](Cc1ccccc1)C(=O)N[C@@H](Cc1ccccc1)C(=O)CS)OCc1ccccc1`, the Ki was 4.37 nM.
